The values below come from US9157906B2, “Phosphodiesterase activity and regulation of phosphodiesterase 1B-mediated signaling in brain” (THE ROCKEFELLER UNIVERSITY, priority 2001, dated 2015).

Where a name gives a salt, the structure may show the parent alone.

Experiment [1] deals with DARPP-32 at Thr34. Put plainly: Phosphorylation of DARPP-32 at Thr34 in striatal slices, immunoblot with phosphorylation state-specific antibodies. The class given is cell-based, mouse. Particulars: for increase in levels of phospho-Thr34 DARPP-32 and phospho-Ser845 GluR1: forskolin (10, unit not given). As to the method:
(§1) Male PDE1B−/− (null) and WT mice (8-12 weeks of age) were decapitated. The brain was transferred rapidly to an ice-cold surface, blocked, and fixed to the cutting surface of a Vibratome (Ted Pella, Redding, Calif.) maintained at 4° C. The brain was submersed in cold, oxygenated (95% O2/5% CO2) Krebs' bicarbonate buffer of the following composition (in mM): 125 NaCl, 5KCl, 26 NaHCO3, 1.5 CaCl2, 1.5 MgSO4, and 10 glucose, pH 7.4. Coronal mouse brain sections (400 μm in thickness) were cut and pooled in cold buffer. Striatal or nucleus accumbens slices were cut from the coronal sections under a dissecting microscope. Individual slices were preincubated in fresh buffer for 15 min at 30° C.; the buffer was replaced, and preincubation continued for an additional 30 min. […] Slices were frozen immediately in liquid nitrogen and stored at −80° C. until assayed.
Frozen slices were sonicated in homogenization buffer containing 1% SDS. Small aliquots of the homogenate were retained for protein determination by standard assays using bovine serum albumin as the standard. Equal amounts of protein (50 μg) were loaded onto 10% acrylamide gels, separated by SDS/PAGE, and transferred to nitrocellulose membranes by a method described by Tobin et al. (1979. Proc. Natl. Acad. Sci, USA 76:4350-4354). […]
(§2) Chemiluminescence was detected by autoradiography and bands were quantified by analysis of scanned images using NIH Image 1.52 software. Because the linear range for quantitation of ECL signals by densitometry is limited, several film exposures were obtained for each set of samples to insure that the signals were within a density range that allowed for accurate quantitation. […]

Experiment [2] concerns GluR1 AMPA receptor at Ser845. As to the kind of experiment: Phosphorylation of GluR1 AMPA receptor at Ser845 in striatal slices, immunoblot with phosphorylation state-specific antibodies. The settings on record: striatal slices of PDE1B null mice; 10 μM, 10 minutes. The class given is cell-based, mouse. As for the experimental part:
as §1
Frozen slices were sonicated in homogenization buffer containing 1% SDS. […]
as §2
A general note: A western blot detects proteins with antibodies after separation by electrophoresis.

In experiment [3] the test system is D1-mediated phosphorylation. As to the kind of experiment: D1-mediated phosphorylation in nucleus accumbens slices. The experiment is classed as cell-based, mouse. The settings on record: D1 receptor agonist. As to the method: Male PDE1B−/− (null) and WT mice (8-12 weeks of age) were decapitated. The brain was transferred rapidly to an ice-cold surface, blocked, and fixed to the cutting surface of a Vibratome (Ted Pella, Redding, Calif.) maintained at 4° C. The brain was submersed in cold, oxygenated (95% O2/5% CO2) Krebs' bicarbonate buffer of the following composition (in mM): 125 NaCl, 5KCl, 26 NaHCO3, 1.5 CaCl2, 1.5 MgSO4, and 10 glucose, pH 7.4. Coronal mouse brain sections (400 μm in thickness) were cut and pooled in cold buffer. Striatal or nucleus accumbens slices were cut from the coronal sections under a dissecting microscope. Individual slices were preincubated in fresh buffer for 15 min at 30° C.; the buffer was replaced, and preincubation continued for an additional 30 min. At the end of this second preincubation period the buffer was replaced with Krebs' buffer or buffer containing test substances for 5 min. Slices were frozen immediately in liquid nitrogen and stored at −80° C. until assayed. […]
as §2

Experiment [4] has as its system PDE1B null mice. As to the kind of experiment: Methamphetamine-stimulated horizontal locomotor activity (Digiscan apparatus). Particulars: 1 mg/kg subcutaneous.

Take `C=C[C@@]1(C)CC(=O)[C@]2(O)[C@@]3(C)[C@@H](O)CCC(C)(C)[C@@H]3[C@H](O)[C@H](OC(C)=O)[C@@]2(C)O1` [Forskolin]: the “increase in levels of phospho-Thr34 DARPP-32 and phospho-Ser845 GluR1” value in experiment [1] (striatal slices from PDE1B null mice) is 65 fold; in experiment [1] (striatal slices from wild-type mice), 21 fold.

`Oc1cc2c(c(Cl)c1O)CCNCC2c1ccccc1` (stereo not drawn) [SKF81297]: in experiment [1] (striatal slices of PDE1B null mice, 10 μM, 10 minutes), the “increase for phospho-Thr34 as compared to controls” value was 15 fold. The “increase for phospho-Ser845 as compared to controls” value in experiment [2] was 13 fold. In addition, the “D1-mediated phosphorylation in PDE1B null mice as compared to wild-type mice” value in experiment [3] is “enhanced”.

For the molecule `CN[C@@H](C)Cc1ccccc1` [methamphetamine, d-methamphetamine hydrochloride], the “duration of stimulated hyperactivity response after treatment” value in experiment [4] was 90 min.
